The target in one series is T1, Aβ plaques (Homo sapiens, UniProt P05067).
T1 construct: Native forms of tau (various isoforms, hyperphosphorylated) and amyloid aggregates are present in brain sections; from tissue; host or cells: human AD brain, frozen frontal lobe sections
The series can be described thus: Fluorescent compound staining on human AD brain sections (β-amyloid IHC double labeling). Particulars: Table 3 benzimidazoles; 100 uM compound; qualitative rating 1+ to 4+ / + to +++. Format: binding. The text has this:
(§1) Native forms of tau (various isoforms, hyperphosphorylated) and amyloid aggregates are present in brain sections and therefore preferred for compound testing. Using the self-fluorescence of a test compound can give an indication of whether the compound binds to tau tangles/PHFs and/or amyloid plaques. This is further confirmed by immunostaining with Aβ and tau antibodies and overlaying the images. […] However, it is possible to “rate” the signal strength qualitatively and distinguish compounds that show binding to these aggregates.
(§2) In one of the embodiments of the present invention, the self-fluorescence of the compound of formula (I) is used to determine whether the compound binds to tau/amyloid in the brain sections and to give it a qualitative rating. The next step is to proceed to the autoradiography using different brain types for further evaluation and quantitation.
(§3) Tau fluorescent compounds staining on human brain sections (Double or triple labeled with tau and β-amyloid Immunohistochemistry (IHC))
(§4) Serial sections (6 μm thick) from OCT-embedded frozen blocks of front lobe were used for staining (OCT—optimal cutting temperature). After fixation and quenching of autofluorescence, tissue sections were incubated with in 100 μM of tau compound in 50% ethanol PBS for 60 min. Then sections were dipped briefly into water, rinsed in PBS, blocked with 5% normal horse serum in PBS for 1 hour at room temperature. After blocking, the tissue was incubated with tau or β-amyloid primary antibody at 4° C. overnight in a humid chamber. Next day, the sections were washed with PBS and then incubated with secondary antibody for 1 hour.

In another series the test system is AD brain sections. The series is described as follows: Fluorescent compound staining on human AD brain sections (self-fluorescence, overall binding). The conditions noted are these: for binding of fluorescent compound to AD brain sections confirmed by immunostaining with tau or Aβ antibodies: figure legends, double labeling at 100 uM.
Source text: as §1, §2, §3, §4

The target in a further series is T2, Bombesin BB3 (Homo sapiens, UniProt P32247).
T2 sequence (P32247 1-399): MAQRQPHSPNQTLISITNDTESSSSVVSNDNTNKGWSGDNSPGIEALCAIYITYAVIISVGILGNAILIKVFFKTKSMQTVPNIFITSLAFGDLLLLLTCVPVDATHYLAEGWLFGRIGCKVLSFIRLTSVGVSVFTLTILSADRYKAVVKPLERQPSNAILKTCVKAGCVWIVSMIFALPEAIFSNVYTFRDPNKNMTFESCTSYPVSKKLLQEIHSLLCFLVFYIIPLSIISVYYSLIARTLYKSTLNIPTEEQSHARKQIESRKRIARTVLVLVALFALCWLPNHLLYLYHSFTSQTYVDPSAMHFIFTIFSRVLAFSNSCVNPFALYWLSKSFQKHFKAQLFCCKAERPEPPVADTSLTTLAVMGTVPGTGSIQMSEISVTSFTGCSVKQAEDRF
The series can be described thus: CNS selectivity panel, Bombesin BB3. Particulars: 10 uM (printed in T777 column). It counts as binding.

The target in another series is synthetic tau (Homo sapiens, UniProt P10636). The series is described as follows: Synthetic tau Kd (F-18 labeled and cold compound, filtration). Format: binding. As to the method:
(§5) Pick one brain section for each type and air-dry in hood. A solution of diluted F-18 labeled tracer (40 μCi/mL, 500 μL) which was obtained from the dilution of F-18 tracer with 1×PBS containing 2.5% EtOH and 2.5% DMSO was applied onto each slides to cover the whole tissue section. The resulting slides were incubated at room temperature for 90 minutes, drained, and placed onto a slide holder. The slides were then washed sequentially with 1×PBS for 1 min; 70% EtOH in 1×PBS for 2 min; 30% EtOH in 1×PBS for 2 min; and 1×PBS for 1 min. The slides were dried in the hood for 30 min, and then placed on Fuji imaging plates and exposed overnight. The imaging plates were then scanned and the signal was measured using Fuji software to produce an autoradiography image of the brain section. (PBS—Phosphate Buffer Saline) Protocol for Synthetic Beta-amyloid and Tau Kds
Various concentrations solution of F-18 labeled and its parent cold compound in 1×PBS containing 5% Ethanol and 5% DMSO (pH 7.4) were incubated with synthetic beta-Amyloid or synthetic tau at room temperature in glass tubes for 90 min. The reaction mixture in each tube was filtered under vacuum through a microfiber filter. Each tube was washed with a solution of 20% EtOH in PBS. The PBS wash solution was filtered under vacuum through the filters. Each filter was then washed with a solution of 20% EtOH in PBS and then placed into a gamma counter vial for CPM counting. The data obtained was plotted for Kd determination.

Another series deals with tau/Ab. The series is described as follows: selectivity (tau/Ab). Format: binding.
The nature of series [1]: Mouse and rat brain microPET imaging (brain uptake). Format: in vivo. Particulars: rats and mice. Here is the method: Mouse and Rat Brain microPET Imaging
Wild type mice and rats were injected intravenously with the candidate tracers. Mice (weight range 25-45 g) were injected with doses between 180 and 300 μCi in 200 uL of saline solution. Rats (weight range 300-400 g) were injected with doses between 300 and 500 μCi of tracer in 400 μL of saline solution. Anesthesia was induced and maintained with Isoflurane. CT and PET scans were performed with a MM INVEON scanner (SIEMENS™). Acquisition for CT images preceded PET scanning and lasted 5 minutes. Only several minutes after the beginning of the PET acquisition, the radioactive dose was injected into the animal through the tail vein. Images were generated as dynamic scans that typically lasted 30 minutes. The initial image analysis consisted of determining whether there was uptake of the tracer in the brain which would establish its ability to cross the blood-brain barrier. All measurements were performed at the time point of 5 minutes following the injection of the tracer. The degree of uptake in the brain was estimated relative to the uptake of the traces in the region of neck muscles. The ratio between the percentage of injected dose per gram in the brain and that of the muscular neck region was provided as an estimate of brain uptake.

The target of the next series is Norepinephrine transp. (Homo sapiens, UniProt P23975). The series is described as follows: CNS selectivity panel, norepinephrine transporter. It counts as binding.
In another series the target is T3, MAO-A (Homo sapiens, UniProt P21397).
T3 sequence (P21397 1-527): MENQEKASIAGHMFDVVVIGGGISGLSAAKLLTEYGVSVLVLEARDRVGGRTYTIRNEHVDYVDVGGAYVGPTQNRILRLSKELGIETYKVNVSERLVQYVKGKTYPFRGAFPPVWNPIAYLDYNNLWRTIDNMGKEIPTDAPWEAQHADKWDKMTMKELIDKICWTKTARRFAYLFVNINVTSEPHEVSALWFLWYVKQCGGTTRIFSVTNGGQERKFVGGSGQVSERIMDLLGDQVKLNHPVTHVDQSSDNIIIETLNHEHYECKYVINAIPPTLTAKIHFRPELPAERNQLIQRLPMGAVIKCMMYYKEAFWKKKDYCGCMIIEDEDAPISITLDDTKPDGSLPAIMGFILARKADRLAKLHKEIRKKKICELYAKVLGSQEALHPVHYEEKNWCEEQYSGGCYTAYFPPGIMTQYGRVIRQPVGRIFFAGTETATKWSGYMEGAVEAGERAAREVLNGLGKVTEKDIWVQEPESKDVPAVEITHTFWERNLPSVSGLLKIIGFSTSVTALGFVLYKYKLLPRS
The series can be described thus: MAO inhibition, MAO-A. It counts as biochemical.

For a further series, the target named is AchE (Homo sapiens, UniProt P22303). The series is described as follows: AchE activity. Format: biochemical.
Another series has as its system human hepatocytes. The series is described as follows: Stability in human hepatocytes. It counts as in vitro ADME.
Another series relates to human AD brain slices. The series can be described thus: Human AD brain section autoradiography with F-18 tracer. Format: binding. The conditions noted are these: for GM Intensity (comp. with W372): compared with W372; for Tx/tau/amyloid correlation: tracer signal vs tau and amyloid load.
Source text: Furthermore, the selectivity can be evaluated in brains containing only Aβ plaques/no tau aggregates, Aβ plaques/and tau aggregates, and control brains. Unfortunately, there are no AD brains with only tau and no Aβ present. By testing radiolabeled tracers in these brain sections, one can more quantitative evaluate the relative binding strength (signal strength) and selectivity of various test compounds as they all contain the same radioactive tracer. For examples, if a test tracer binds only to tau, and not amyloid, it should show no signal in the Aβ plaques only brain sections. If a compound binds only to amyloid, it should show uptake in both types of brains. The difficulty of identifying and further quantifying selective compounds lies in the relative abundance of amyloid vs. tau, which is difficult to measure.
Human AD Brain Section Autoradiography
5 micron thick human AD brain slices were first examined using antibodies for Aβ and Tau to determine whether the tested human brain contains Aβ and Tau. Thus, three types of human brain slices were selected for autoradiography: Aβ+/Tau+; Aβ+/Tau−; and Aβ−/Tau−(control).
The experimental protocol is as follows:
as §5

A further series has as its target T4, MAO-B (Homo sapiens, UniProt P27338).
T4 sequence (P27338 1-520): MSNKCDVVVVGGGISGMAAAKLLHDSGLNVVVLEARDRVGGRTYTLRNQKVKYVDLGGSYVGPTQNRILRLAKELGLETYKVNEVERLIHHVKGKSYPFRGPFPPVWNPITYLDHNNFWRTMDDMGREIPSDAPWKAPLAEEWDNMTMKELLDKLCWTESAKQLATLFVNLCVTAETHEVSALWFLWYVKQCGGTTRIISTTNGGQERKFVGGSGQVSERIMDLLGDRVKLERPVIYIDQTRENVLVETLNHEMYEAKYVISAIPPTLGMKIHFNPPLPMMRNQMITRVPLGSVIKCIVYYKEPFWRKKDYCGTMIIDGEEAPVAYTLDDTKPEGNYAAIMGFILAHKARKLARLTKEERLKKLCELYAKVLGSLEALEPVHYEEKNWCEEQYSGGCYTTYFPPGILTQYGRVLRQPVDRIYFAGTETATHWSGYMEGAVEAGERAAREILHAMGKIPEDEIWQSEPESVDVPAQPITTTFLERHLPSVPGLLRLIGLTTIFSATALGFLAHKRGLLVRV
The series is described as follows: MAO inhibition, MAO-B. Format: biochemical.

In another series the test system is Monoamine transp. The series can be described thus: CNS selectivity panel, monoamine transporter. Format: binding.
Another series has as its system tau aggregates. The series is described as follows: Fluorescent compound staining on human AD brain sections (tau IHC double labeling). Format: binding. The conditions noted are these: Table 2 acetylenes; 100 uM compound; qualitative rating + to ++++ or words.
Source text: as §1, §2, §3, §4

Sequence of synthetic tau (P10636 whole entry): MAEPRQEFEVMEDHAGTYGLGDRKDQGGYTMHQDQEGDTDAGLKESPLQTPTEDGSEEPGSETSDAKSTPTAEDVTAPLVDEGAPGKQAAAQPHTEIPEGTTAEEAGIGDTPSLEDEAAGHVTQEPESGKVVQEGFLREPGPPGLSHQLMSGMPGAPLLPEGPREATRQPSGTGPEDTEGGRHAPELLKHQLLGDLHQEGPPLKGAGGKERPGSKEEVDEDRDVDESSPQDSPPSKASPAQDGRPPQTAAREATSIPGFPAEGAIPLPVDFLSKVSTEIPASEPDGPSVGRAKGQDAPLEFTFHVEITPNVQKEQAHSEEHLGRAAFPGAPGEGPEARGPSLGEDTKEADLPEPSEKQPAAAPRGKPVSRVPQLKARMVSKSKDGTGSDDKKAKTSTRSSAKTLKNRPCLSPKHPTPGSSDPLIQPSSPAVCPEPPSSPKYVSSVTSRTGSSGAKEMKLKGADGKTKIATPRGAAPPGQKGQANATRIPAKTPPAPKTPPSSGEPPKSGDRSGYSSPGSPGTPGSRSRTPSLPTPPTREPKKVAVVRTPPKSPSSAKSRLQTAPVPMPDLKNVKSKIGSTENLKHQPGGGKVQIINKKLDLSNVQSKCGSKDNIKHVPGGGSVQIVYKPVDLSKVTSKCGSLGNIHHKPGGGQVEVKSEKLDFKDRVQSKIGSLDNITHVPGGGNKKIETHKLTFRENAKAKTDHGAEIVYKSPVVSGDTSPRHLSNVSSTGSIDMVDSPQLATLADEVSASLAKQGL
Sequence of AchE (P22303 32-614): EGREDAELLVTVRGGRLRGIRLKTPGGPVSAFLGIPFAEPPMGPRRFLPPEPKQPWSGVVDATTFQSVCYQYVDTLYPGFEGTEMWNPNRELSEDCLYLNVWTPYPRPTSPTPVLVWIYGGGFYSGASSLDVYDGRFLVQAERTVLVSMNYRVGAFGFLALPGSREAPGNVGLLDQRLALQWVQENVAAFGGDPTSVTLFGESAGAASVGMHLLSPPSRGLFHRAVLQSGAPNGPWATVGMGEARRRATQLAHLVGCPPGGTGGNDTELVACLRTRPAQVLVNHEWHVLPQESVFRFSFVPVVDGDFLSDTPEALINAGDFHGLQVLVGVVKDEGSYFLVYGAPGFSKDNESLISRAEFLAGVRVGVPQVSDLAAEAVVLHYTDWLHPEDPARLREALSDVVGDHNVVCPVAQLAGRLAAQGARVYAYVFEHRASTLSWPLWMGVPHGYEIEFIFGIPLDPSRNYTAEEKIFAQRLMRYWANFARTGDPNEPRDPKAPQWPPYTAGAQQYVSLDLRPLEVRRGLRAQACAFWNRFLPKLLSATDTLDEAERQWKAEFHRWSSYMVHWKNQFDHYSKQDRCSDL
Sequence of Norepinephrine transp. (P23975 whole entry): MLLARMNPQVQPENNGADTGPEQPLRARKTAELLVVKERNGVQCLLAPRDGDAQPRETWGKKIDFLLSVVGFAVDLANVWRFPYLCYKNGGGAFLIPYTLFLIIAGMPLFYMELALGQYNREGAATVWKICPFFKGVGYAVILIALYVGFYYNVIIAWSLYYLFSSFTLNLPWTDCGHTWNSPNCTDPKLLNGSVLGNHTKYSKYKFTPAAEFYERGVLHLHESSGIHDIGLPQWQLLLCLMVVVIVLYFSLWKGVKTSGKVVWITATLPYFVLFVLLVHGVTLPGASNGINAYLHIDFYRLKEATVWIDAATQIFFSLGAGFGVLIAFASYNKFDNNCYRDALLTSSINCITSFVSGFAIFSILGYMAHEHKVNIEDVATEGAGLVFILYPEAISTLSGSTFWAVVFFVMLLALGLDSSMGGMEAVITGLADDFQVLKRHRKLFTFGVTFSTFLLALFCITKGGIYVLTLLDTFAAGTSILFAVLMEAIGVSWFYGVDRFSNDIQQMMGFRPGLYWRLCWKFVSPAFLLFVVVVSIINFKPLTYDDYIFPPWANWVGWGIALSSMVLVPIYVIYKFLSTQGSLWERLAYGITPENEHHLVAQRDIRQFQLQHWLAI
T1 sequence (P05067 672-713 limits assumed): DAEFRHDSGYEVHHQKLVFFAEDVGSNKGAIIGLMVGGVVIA

Consider `CN(C)c1ccc(-c2ccc(-c3nc4ccccc4n3CCF)cc2)cc1` [Compound T543, 4′-(1-(2-Fluoroethyl)-1H-benzo[d]imidazol-2-yl)-N,N-dimethyl-[1,1′-biphenyl]-4-amine], for which, at Aβ plaques, the “Brain Section Staining: Aβ” value was “no binding”. Also, the “binding of fluorescent compound to AD brain sections confirmed by immunostaining with tau or Aβ antibodies” value in the series on AD brain sections is recorded as “binding”.
Turning to `FC1CCN(c2ccn3c(n2)nc2ccccc23)CC1` [Compound T777, 2-(4-fluoropiperidin-1-yl)benzo[4,5]imidazo[1,2-a]pyrimidine], on Bombesin BB3, the “CNS selectivity panel: Bombesin BB3” value is recorded as “Bombesin BB3 (49%)”. At synthetic tau (Scheme 6 table), the dissociation constant Kd (commonly the free concentration of one partner at which half of the binding sites on the other are occupied at equilibrium, for simple one-to-one binding) came to 19 nM. Also, the “selectivity (tau/Ab)” value in the series on tau/Ab is reported as 25×. For the same compound, the Brain uptake entry in [1] was “yes (4 rats, 4 mice)”. For the same compound, the “CNS selectivity panel: Norepinephrine transp.” value on Norepinephrine transp. (10 uM) is “transp. (42%)”. The inhibition (in general, the relative decrease from the control value, in per cent) at 1 µM turned out to be 9% on MAO-A and 0% on MAO-B. For the same compound, half-maximal inhibition against AchE (IC50) required 3 µM. For the same compound, the “human hepatocytes (stability)” value with human hepatocytes is given as “not stable (polar metabolites)”. Moreover, the “GM Intensity (comp. with W372)” value in the series on human AD brain slices is 9%. Moreover, the Tx/tau/amyloid correlation entry with human AD brain slices is “yes”. Besides, the “CNS selectivity panel: Monoamine transp.” value in the series on Monoamine transp. (10 uM) was “transp. (49%)”.
In turn, `COc1ccc2nc3cc(-c4ccc(F)nc4)ccn3c2c1` [Compound T663, 3-(6-Fluoropyridin-3-yl)-8-methoxybenzo[4,5]imidazo[1,2-a]pyridine] gave a Kd on synthetic tau (Scheme 5 table) of 105 nM.
Regarding `CN(C)c1ccc(C#Cc2nc3ccccc3n2CCF)cc1` [Compound T482, 4-((1-(2-Fluoroethyl)-1H-benzo[d]imidazol-2-yl)ethynyl)-N,N-dimethylaniline], the “binding of fluorescent compound to AD brain sections confirmed by immunostaining with tau or Aβ antibodies” value in the series with AD brain sections is on record as “total tau binding”. Besides, in the series on tau aggregates, the “Brain Section Staining: tau” value was “Mostly binds to Tau”.
In the case of `FCCC1CCN(c2ccn3c(n2)nc2ccccc23)CC1` [Compound T808, 2-(4-(2-fluoroethyl)piperidin-1-yl)benzo[4,5]imidazo[1,2-a]pyrimidine], on Bombesin BB3, the “CNS selectivity panel: Bombesin BB3” value is given as “Bombesin BB3 (<20%)”. Further, on synthetic tau (Scheme 6 table), the Kd stood at 22 nM. For the same compound, the “selectivity (tau/Ab)” value with tau/Ab is 27×. The Brain uptake result in series [1] is “yes (4 rats, 5 mice)”. In addition, the IC50 (as a rule, the concentration at which inhibition is half-maximal) on Norepinephrine transp. was 820 nM; against AchE, 3 µM; with Monoamine transp., 2700 nM. The inhibition at 1 µM against MAO-A stood at 22%; on MAO-B, 29%. Also, in the series with human hepatocytes, the “human hepatocytes (stability)” value was “stable”. In the series with human AD brain slices, the “GM Intensity (comp. with W372)” value turned out to be 18%. Moreover, the Tx/tau/amyloid correlation result with human AD brain slices is “yes”.
`c1ccc2nc(-c3ccncc3)ccc2c1` [Compound T123, 2-(Pyridin-4-yl)quinoline]: in the series with AD brain sections (Table 1 quinolines, 100 uM compound), the “Brain Section Staining: fluorescence” value is on record as “No fluorescence is detected at 100 uM”.
